The values below come from US20240209028A1, “CNP COMPOUNDS” (priority 2022, published 2024).

Usually EC50 stands for the concentration at which the effect is half-maximal. A higher EC50 goes with lower potency in that assay.

The target of this assay is T1, human natriuretic peptide receptor 2 (hNPR2) (Homo sapiens, UniProt P20594).
T1 construct: expressed in transfected cells; host or cells: HEK293 (ATCC CRL-1573), clone 35, co-transfected with pGloSensor-42F
T1 sequence (P20594 23-1047): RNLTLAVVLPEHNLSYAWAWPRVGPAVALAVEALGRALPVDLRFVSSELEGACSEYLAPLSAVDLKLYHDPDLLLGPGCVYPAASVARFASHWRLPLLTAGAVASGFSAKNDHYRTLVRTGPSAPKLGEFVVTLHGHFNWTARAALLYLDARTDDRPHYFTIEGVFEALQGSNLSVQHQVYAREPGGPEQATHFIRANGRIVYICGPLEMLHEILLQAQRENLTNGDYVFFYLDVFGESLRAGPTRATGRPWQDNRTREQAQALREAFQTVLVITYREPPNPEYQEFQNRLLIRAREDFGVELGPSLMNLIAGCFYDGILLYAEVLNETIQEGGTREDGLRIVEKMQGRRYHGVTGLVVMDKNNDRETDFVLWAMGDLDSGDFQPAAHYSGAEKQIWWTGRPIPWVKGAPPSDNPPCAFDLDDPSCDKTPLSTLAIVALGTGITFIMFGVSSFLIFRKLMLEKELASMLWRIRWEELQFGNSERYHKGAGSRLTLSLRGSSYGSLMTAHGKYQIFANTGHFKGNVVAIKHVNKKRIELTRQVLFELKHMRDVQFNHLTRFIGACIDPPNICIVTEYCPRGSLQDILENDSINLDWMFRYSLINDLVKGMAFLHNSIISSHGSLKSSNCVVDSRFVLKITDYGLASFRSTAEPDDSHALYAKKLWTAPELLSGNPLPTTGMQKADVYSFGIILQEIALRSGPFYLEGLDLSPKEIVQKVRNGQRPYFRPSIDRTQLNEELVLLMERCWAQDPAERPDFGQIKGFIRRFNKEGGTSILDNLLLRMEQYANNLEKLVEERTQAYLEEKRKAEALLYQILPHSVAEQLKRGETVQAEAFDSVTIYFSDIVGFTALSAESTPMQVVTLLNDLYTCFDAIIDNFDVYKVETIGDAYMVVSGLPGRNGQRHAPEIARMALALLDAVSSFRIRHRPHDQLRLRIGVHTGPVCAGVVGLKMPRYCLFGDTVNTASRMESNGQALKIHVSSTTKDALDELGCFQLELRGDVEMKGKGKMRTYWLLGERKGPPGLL
As to the kind of experiment: In vitro hNPR2 activity assay (cGMP GloSensor reporter, HEK293). The class given is cell-based. Conditions: for hNPR2 0% HSA. [EC50% rel CNP]: potency relative to CNP22 (0065); for EC50: 0% HSA, HEK293-hNPR2/GloSensor cells. Put shortly: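 Potency is the EC50 from a four-parameter logistic fit, also expressed relative to the in-plate CNP22 control (×100), with at least two replicates. Compounds (ten concentrations, […], HSA-free diluent with 1% OVA, 0.01% Tween20) were incubated 30 min at 37 °C on HEK293 cells co-expressing hNPR2 and a GloSensor cGMP luciferase. Luminescence detected with Bright-Glo.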

Structures are written as SMILES. Starred links: 1 amine or outer side, 2 acyl side, 3 side chain; linkers in the order of their positions; H or OH if unused. Positions of bridges follow the written chain, without caps; N, C: chain ends. Residues, ends and D or L forms follow the SMILES beside them. *: point of attachment. C18 diacid = O=C(O)CCCCCCCCCCCCCCCCC(=O)*; γGlu = O=C(O)[C@H](CCC(=O)[*:2])N[*:1]; AEEA = NCCOCCOCC(=O)O

With `CC[C@H](C)[C@@H]1NC(=O)[C@H](CCCNC(=N)N)NC(=O)[C@H](CC(=O)O)NC(=O)[C@H](CC(C)C)NC(=O)[C@@H]2CCCN2C(=O)[C@H](CC(C)C)NC(=O)CNC(=O)[C@H](Cc2ccccc2)NC(=O)[C@@H](NC(=O)CNC(=O)[C@H](CO)NC(=O)[C@H](CO)NC(=O)[C@H](CC(C)C)NC(=O)CNC(=O)[C@H](CCCCN)NC(=O)[C@H](CCCCN)NC(=O)[C@H](CCC(N)=O)NC(=O)[C@H](C)NC(=O)CNC(=O)[C@H](CCC(=O)O)NC(=O)[C@H](Cc2ccc(O)cc2)NC(=O)COCCOCCNC(=O)COCCOCCNC(=O)CC[C@H](NC(=O)CC[C@H](NC(=O)CCCCCCCCCCCCCCCCC(=O)O)C(=O)O)C(=O)O)CSSC[C@@H](C(=O)O)NC(=O)CNC(=O)[C@H](CC(C)C)NC(=O)CNC(=O)[C@H](CO)NC(=O)[C@H](CC(C)C)NC(=O)[C@H](CO)NC(=O)CNC1=O` [compound 1290] ({C18 diacid-γGlu-γGlu-AEEA-AEEA}-YEGAQKKGLSSGCFGLPLDRIGSLSGLGC-OH; disulfide 13-29), the “hNPR2 0% HSA. [EC50% rel CNP]” value was found to be 7.0%.
On to `CC[C@H](C)[C@@H]1NC(=O)[C@H](CCCNC(=N)N)NC(=O)[C@H](CC(=O)O)NC(=O)[C@H](CC(C)C)NC(=O)[C@@H]2CCCN2C(=O)[C@H](CC(C)C)NC(=O)CNC(=O)[C@H](Cc2ccccc2)NC(=O)[C@@H](NC(=O)CNC(=O)[C@H](CO)NC(=O)[C@H](CO)NC(=O)[C@@H](NC(=O)CNC(=O)[C@@H](NC(=O)[C@H](Cc2c[nH]cn2)NC(=O)[C@H](CCC(N)=O)NC(=O)[C@H](C)NC(=O)CNC(=O)[C@H](Cc2c[nH]cn2)NC(=O)[C@H](CCC(=O)O)NC(=O)[C@H](CCCCN)NC(=O)[C@H](CCCNC(=N)N)NC(=O)[C@H](C)NC(=O)COCCOCCNC(=O)COCCOCCNC(=O)CC[C@H](NC(=O)CCCCCCCCCCCCCCCCC(=O)O)C(=O)O)[C@@H](C)O)C(C)C)CSSC[C@@H](C(=O)O)NC(=O)CNC(=O)[C@H](CC(C)C)NC(=O)CNC(=O)[C@H](CO)NC(=O)[C@H](CC(C)C)NC(=O)[C@H](CO)NC(=O)CNC1=O` [compound 1360] ({C18 diacid-γGlu-AEEA-AEEA}-ARKEHGAQHTGVSSGCFGLPLDRIGSLSGLGC-OH; disulfide 16-32), for which the “hNPR2 0% HSA. [EC50% rel CNP]” value is 15.1%.
Take `CC[C@H](C)[C@@H]1NC(=O)[C@H](CCCNC(=N)N)NC(=O)[C@H](CC(=O)O)NC(=O)[C@H](CC(C)C)NC(=O)[C@@H]2CCCN2C(=O)[C@H](CC(C)C)NC(=O)CNC(=O)[C@H](Cc2ccccc2)NC(=O)[C@@H](NC(=O)CNC(=O)[C@H](CCCCN)NC(=O)[C@H](CO)NC(=O)[C@@H](NC(=O)CNC(=O)[C@@H](NC(=O)[C@H](CCCCN)NC(=O)[C@H](CCC(N)=O)NC(=O)[C@H](C)NC(=O)CNC(=O)[C@H](CCCCN)NC(=O)[C@H](Cc2ccc(O)cc2)NC(=O)[C@H](CCCCN)NC(=O)[C@H](CCCNC(=N)N)NC(=O)[C@H](C)NC(=O)COCCOCCNC(=O)COCCOCCNC(=O)CC[C@H](NC(=O)CC[C@H](NC(=O)CC[C@H](NC(=O)CC[C@H](NC(=O)CCCCCCCCCCCCCCCCC(=O)O)C(=O)O)C(=O)O)C(=O)O)C(=O)O)[C@@H](C)O)C(C)C)CSSC[C@@H](C(=O)O)NC(=O)CNC(=O)[C@H](CC(C)C)NC(=O)CNC(=O)[C@H](CO)NC(=O)[C@H](CC(C)C)NC(=O)[C@H](CO)NC(=O)CNC1=O` [compound 1424] ({C18 diacid-γGlu-γGlu-γGlu-γGlu-AEEA-AEEA}-ARKYKGAQKTGVSKGCFGLPLDRIGSLSGLGC-OH; disulfide 16-32): the “hNPR2 0% HSA. [EC50% rel CNP]” value is reported as 36.2%.
Same read-out and setting: for `CC[C@H](C)[C@@H]1NC(=O)[C@H](CCCNC(=N)N)NC(=O)[C@H](CC(=O)O)NC(=O)[C@H](CC(C)C)NC(=O)[C@@H]2CCCN2C(=O)[C@H](CC(C)C)NC(=O)CNC(=O)[C@H](Cc2ccccc2)NC(=O)[C@@H](NC(=O)CNC(=O)[C@H](CO)NC(=O)[C@H](CO)NC(=O)[C@H](CC(C)C)NC(=O)CNC(=O)[C@H](CCCCN)NC(=O)[C@H](CCCCN)NC(=O)[C@H](CCC(N)=O)NC(=O)[C@H](C)NC(=O)CNC(=O)[C@H](CCC(=O)O)NC(=O)COCCOCCNC(=O)COCCOCCNC(=O)CC[C@H](NC(=O)CCCCCCCCCCCCCCCCC(=O)O)C(=O)O)CSSC[C@@H](C(=O)O)NC(=O)CNC(=O)[C@H](CC(C)C)NC(=O)CNC(=O)[C@H](CO)NC(=O)[C@H](CC(C)C)NC(=O)[C@H](CO)NC(=O)CNC1=O` [compound 1339] ({C18 diacid-γGlu-AEEA-AEEA}-EGAQKKGLSSGCFGLPLDRIGSLSGLGC-OH; disulfide 12-28) the value was 15.5%.
On to `CC[C@H](C)[C@@H]1NC(=O)[C@H](CCCNC(=N)N)NC(=O)[C@H](CC(=O)O)NC(=O)[C@H](CC(C)C)NC(=O)[C@H](CCCCN)NC(=O)[C@H](CC(C)C)NC(=O)CNC(=O)[C@H](Cc2ccccc2)NC(=O)[C@@H](NC(=O)CNC(=O)[C@H](CCCCN)NC(=O)[C@H](CO)NC(=O)[C@H](CC(C)C)NC(=O)CNC(=O)[C@H](CCCCN)NC(=O)[C@H](CCCCN)NC(=O)[C@H](CCC(N)=O)NC(=O)[C@H](C)NC(=O)CNC(=O)[C@H](CCC(=O)O)NC(=O)[C@H](CCC(=O)O)NC(=O)COCCOCCNC(=O)COCCOCCNC(=O)CC[C@H](NC(=O)CCCCCCCCCCCCCCCCC(=O)O)C(=O)O)CSSC[C@@H](C(=O)O)NC(=O)CNC(=O)[C@H](CC(C)C)NC(=O)CNC(=O)[C@H](CO)NC(=O)[C@H](CC(C)C)NC(=O)[C@H](CO)NC(=O)CNC1=O` [compound 1222], for which the half-maximal effective concentration (EC50) is 2.94 nM and the “hNPR2 0% HSA. [EC50% rel CNP]” value stood at 14.3%.
As for `CC[C@H](C)[C@@H]1NC(=O)[C@H](CCCNC(=N)N)NC(=O)[C@H](CCC(=O)O)NC(=O)[C@H](CC(C)C)NC(=O)[C@@H]2CCCN2C(=O)[C@H](CC(C)C)NC(=O)CNC(=O)[C@H](Cc2ccccc2)NC(=O)[C@@H](NC(=O)CNC(=O)[C@H](CCC(N)=O)NC(=O)[C@H](CO)NC(=O)[C@H](CO)NC(=O)CNC(=O)[C@H](CCCCN)NC(=O)[C@H](CCCCN)NC(=O)[C@H](CCC(N)=O)NC(=O)[C@H](C)NC(=O)CNC(=O)[C@@H]2CCCN2C(=O)[C@H](C)NC(=O)[C@H](CCC(N)=O)NC(=O)CNC(=O)COCCOCCNC(=O)COCCOCCNC(=O)CC[C@H](NC(=O)CCCCCCCCCCCCCCCCC(=O)O)C(=O)O)CSSC[C@@H](C(=O)O)NC(=O)CNC(=O)[C@H](CC(C)C)NC(=O)CNC(=O)[C@H](CO)NC(=O)[C@H](CC(C)C)NC(=O)[C@H](CO)NC(=O)CNC1=O` [compound 1486] ({C18 diacid-γGlu-AEEA-AEEA}-GQAPGAQKKGSSQGCFGLPLERIGSLSGLGC-OH; disulfide 15-31; C-terminus assumed), the EC50 was 0.14 nM and the “hNPR2 0% HSA. [EC50% rel CNP]” value is listed as 6.0%.
In the case of `CC[C@H](C)[C@@H]1NC(=O)[C@H](CCCNC(=N)N)NC(=O)[C@H](CC(=O)O)NC(=O)[C@H](CC(C)C)NC(=O)[C@@H]2CCCN2C(=O)[C@H](CC(C)C)NC(=O)CNC(=O)[C@H](Cc2ccccc2)NC(=O)[C@@H](NC(=O)CNC(=O)[C@H](CCCCN)NC(=O)[C@H](CO)NC(=O)[C@H](CC(C)C)NC(=O)CNC(=O)[C@H](CCCCN)NC(=O)[C@H](CCCCN)NC(=O)[C@H](CCC(N)=O)NC(=O)[C@H](C)NC(=O)CNC(=O)[C@H](CCC(=O)O)NC(=O)[C@H](Cc2ccc(O)cc2)NC(=O)[C@H](CCCCN)NC(=O)[C@H](CCCNC(=N)N)NC(=O)[C@H](C)NC(=O)CC[C@H](NC(=O)CC[C@H](NC(=O)CC[C@H](NC(=O)CC[C@H](NC(=O)CCCCCCCCCCCCCCCCC(=O)O)C(=O)O)C(=O)O)C(=O)O)C(=O)O)CSSC[C@@H](C(=O)O)NC(=O)CNC(=O)[C@H](CC(C)C)NC(=O)CNC(=O)[C@H](CO)NC(=O)[C@H](CC(C)C)NC(=O)[C@H](CO)NC(=O)CNC1=O` [compound 1385] ({C18 diacid-γGlu-γGlu-γGlu-γGlu}-ARKYEGAQKKGLSKGCFGLPLDRIGSLSGLGC-OH; disulfide 16-32), the “hNPR2 0% HSA. [EC50% rel CNP]” value came out at 30.7%.
